Source: ChEMBL document CHEMBL1201862, “PubChem BioAssay data set” (2004)
The source made the active and inactive calls.

Legend:
Estrogen receptor beta = Estrogen receptor beta (Homo sapiens, UniProt Q92731);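 note: recombinant ER-beta bound to coactivator SRC1 peptide in presence of estradiol agonist; inhibitors block coactivator peptide binding and lower the FRET signal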
[1] = target: Luciferin 4-monooxygenase (Photinus pyralis, UniProt P08659); test: Counter Screen for Luciferase-based Assay Positives. [Related pubchem assays: 620, 618, 411 ]
Sequence of Luciferin 4-monooxygenase (P08659 whole entry): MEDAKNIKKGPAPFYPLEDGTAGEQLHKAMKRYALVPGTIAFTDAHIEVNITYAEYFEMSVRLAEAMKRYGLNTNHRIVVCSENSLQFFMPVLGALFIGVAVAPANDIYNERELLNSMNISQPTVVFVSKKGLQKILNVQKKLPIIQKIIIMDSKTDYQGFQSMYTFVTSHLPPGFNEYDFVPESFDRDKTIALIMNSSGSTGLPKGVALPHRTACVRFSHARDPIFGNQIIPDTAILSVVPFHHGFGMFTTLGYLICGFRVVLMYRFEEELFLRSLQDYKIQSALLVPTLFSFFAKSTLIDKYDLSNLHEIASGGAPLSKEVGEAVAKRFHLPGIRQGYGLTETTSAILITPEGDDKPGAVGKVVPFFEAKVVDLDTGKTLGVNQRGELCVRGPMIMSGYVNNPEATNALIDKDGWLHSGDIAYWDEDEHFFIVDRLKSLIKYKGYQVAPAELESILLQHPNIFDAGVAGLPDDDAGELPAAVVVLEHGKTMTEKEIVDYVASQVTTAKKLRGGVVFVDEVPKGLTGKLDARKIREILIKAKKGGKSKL

HT-1080 = test: HT1080 cell viability loss – fluorescence readout (AID 620); assay type: functional, cell-based; settings: Homo sapiens
HEK293 = test: EBV LMP1 TES2 canonical NF-kB signalling blockers – cell-based, HEK293, luciferase, cherry-pick, dose response (AID 588343); assay type: functional; settings: Homo sapiens
[2] = A549 cell cytotoxicity, dose response, cytotoxicity control, plate reader, cherry-pick, antagonist series (AID 743412); assay type: functional, cell-based
[3] = blockers of bursicon-stimulated LGR2 cAMP reporter – cell-based, HEK293, CRE-luciferase reporter, cherry pick, set 2, dose response (AID 743343); assay type: functional;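 note: transfected cells were stimulated with diluted bursicon conditioned medium after compound addition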
[4] = blockade of melanocortin 4 receptor signaling – cell-based, plate reader, cherry pick, counter-screen for LGR2 antagonist project, dose response (AID 743444); assay type: functional;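 note: transfected HEK 293 cells stimulated with alpha-MSH peptide; potency of inhibitors of the alpha-MSH evoked signal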
[5] = target: T1, Corticotropin-releasing factor receptor 2/Corticotropin-releasing factor-binding protein (Homo sapiens, UniProt P24387+Q13324); test: Dose Response confirmation of uHTS hits for small molecule antagonists of the CRF-binding protein and CRF-R2 receptor complex.; assay type: functional; settings: read-out: IC50_Mean
T1 sequence (Q13324 whole entry): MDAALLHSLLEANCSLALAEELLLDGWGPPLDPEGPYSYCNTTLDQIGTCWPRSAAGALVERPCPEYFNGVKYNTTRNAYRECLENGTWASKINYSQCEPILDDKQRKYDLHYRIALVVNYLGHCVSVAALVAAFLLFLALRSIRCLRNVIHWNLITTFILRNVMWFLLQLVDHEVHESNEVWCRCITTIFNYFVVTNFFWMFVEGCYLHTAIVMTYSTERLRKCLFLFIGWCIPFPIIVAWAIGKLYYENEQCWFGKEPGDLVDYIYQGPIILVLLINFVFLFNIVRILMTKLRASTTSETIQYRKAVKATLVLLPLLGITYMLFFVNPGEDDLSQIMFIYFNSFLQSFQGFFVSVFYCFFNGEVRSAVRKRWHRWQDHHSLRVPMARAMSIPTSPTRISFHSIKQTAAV
T1 sequence (P24387 whole entry): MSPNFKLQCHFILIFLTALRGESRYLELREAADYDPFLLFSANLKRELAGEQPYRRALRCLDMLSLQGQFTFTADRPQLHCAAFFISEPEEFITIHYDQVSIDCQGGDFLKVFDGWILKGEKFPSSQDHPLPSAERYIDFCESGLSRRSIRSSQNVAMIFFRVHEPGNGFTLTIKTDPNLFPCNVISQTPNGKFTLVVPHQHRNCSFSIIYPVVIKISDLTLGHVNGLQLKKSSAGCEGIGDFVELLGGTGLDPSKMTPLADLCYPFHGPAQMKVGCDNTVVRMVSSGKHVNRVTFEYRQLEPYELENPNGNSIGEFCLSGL

[6] = target: T1, Corticotropin-releasing factor receptor 2/Corticotropin-releasing factor-binding protein; test: activators of CRF receptor 2 with binding protein – uHTS hits, confirmation (AID 602473); assay type: functional; settings: read-out: EC50_Mean
[7] = target: T2, DNA repair protein RAD52 homolog (Homo sapiens, UniProt P43351); assay type: functional, biochemical
T2 sequence (P43351 whole entry): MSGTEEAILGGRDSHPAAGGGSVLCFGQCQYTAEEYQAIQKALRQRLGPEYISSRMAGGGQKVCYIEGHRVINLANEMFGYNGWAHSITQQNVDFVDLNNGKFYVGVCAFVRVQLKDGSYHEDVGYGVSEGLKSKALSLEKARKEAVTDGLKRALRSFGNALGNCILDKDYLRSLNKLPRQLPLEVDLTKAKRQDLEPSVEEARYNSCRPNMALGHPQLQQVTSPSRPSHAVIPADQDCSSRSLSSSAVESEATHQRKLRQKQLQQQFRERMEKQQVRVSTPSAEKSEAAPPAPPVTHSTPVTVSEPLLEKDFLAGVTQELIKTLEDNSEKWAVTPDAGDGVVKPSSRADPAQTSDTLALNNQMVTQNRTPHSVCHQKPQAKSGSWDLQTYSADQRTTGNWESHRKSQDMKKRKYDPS

Ephrin type-A receptor 4 = Ephrin type-A receptor 4 (Mus musculus, UniProt Q03137); test: EphA4 ligand-binding antagonists – biochemical, colorimetric, mouse EphA4, primary screen (AID 689); assay type: functional
Sequence of Ephrin type-A receptor 4 (Q03137 whole entry): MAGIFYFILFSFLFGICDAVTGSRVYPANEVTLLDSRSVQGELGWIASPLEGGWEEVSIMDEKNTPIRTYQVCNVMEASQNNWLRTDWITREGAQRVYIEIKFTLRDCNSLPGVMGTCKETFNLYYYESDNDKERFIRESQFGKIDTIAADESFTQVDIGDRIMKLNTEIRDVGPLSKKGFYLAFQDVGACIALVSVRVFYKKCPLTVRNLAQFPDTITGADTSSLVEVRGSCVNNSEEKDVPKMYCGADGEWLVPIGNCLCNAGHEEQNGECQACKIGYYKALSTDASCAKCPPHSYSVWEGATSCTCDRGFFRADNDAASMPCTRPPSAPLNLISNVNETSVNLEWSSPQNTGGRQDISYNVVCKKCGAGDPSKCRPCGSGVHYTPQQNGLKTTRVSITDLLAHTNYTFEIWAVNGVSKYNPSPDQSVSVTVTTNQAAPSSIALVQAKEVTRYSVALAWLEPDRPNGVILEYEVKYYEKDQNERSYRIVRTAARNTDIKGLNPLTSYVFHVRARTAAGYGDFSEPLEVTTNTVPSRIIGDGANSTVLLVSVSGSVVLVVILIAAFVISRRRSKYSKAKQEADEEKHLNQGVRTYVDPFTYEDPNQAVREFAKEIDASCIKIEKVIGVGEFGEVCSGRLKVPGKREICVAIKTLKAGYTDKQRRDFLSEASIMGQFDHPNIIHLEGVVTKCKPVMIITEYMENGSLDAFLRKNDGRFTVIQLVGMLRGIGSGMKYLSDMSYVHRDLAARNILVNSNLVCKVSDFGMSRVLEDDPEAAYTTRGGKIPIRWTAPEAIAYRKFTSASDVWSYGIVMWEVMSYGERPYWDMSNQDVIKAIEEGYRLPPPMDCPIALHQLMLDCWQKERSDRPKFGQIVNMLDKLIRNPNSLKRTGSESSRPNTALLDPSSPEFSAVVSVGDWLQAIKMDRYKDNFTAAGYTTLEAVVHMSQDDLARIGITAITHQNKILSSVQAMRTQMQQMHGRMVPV

[8] = target: T3, Heat shock factor protein 1 (Mus musculus, UniProt P38532); test: enhancement of HSF1-driven luciferase signal – cell-based, NIH3T3, luminescence, dose retest, confirmation (AID 435004); assay type: functional;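 note: stress induced by proteasome inhibitor MG132 added 30 min after compound; luciferase reporter driven by HSF1 response element in NIH3T3 cells; actives raise luminescence as potentiators of the MG132 stress response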
T3 sequence (P38532 whole entry): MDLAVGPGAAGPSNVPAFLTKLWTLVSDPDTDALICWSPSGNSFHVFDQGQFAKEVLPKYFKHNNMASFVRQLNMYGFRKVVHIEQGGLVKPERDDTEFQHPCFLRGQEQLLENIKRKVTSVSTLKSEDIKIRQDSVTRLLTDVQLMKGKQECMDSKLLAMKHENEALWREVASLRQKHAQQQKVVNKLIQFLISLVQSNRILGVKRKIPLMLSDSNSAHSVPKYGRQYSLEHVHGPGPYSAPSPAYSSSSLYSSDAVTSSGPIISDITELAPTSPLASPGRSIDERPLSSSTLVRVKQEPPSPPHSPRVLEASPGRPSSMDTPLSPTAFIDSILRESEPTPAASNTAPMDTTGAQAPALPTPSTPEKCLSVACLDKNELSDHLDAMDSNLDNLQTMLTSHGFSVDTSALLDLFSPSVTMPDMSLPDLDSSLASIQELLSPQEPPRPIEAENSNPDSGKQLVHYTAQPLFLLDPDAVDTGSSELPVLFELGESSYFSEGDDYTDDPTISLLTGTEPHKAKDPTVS

[9] = HGIII-sPLA2 enzyme inhibition potency – biochemical, QFRET, IC50, dose response (AID 743457);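 note: green fluorescence rise as the enzyme cleaves BODIPY PC-A2 in liposomes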
cells [10] = assay type: functional, cell-based
[11] = target: T4, Trace amine-associated receptor 1 (Homo sapiens, UniProt Q96RJ0); test: Fluorescence-based cell-based high throughput dose response assay to identify agonists of the human trace amine associated receptor 1 (TAAR1).; assay type: functional
T4 sequence (Q96RJ0 whole entry): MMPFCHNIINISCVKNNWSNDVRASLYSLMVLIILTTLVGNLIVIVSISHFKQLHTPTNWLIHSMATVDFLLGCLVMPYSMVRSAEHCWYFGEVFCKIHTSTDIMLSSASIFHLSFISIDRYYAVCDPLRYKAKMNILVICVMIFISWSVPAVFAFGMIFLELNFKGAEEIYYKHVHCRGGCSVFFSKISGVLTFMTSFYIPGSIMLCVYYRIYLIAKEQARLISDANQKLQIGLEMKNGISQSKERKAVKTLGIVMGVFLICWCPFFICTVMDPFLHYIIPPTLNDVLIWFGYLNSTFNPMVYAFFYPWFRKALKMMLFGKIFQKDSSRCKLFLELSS

[12] = target: T4, Trace amine-associated receptor 1; test: Counterscreen for agonists of the human trace amine associated receptor 1 (hTAAR1): Fluorescence-based cell-based high throughput dose response assay to identify hTAAR1 agonist that also desensitize TAAR1 receptor response.; assay type: functional
cells [13] = assay type: functional, cell-based; remark: listed apart in the source
[14] = potency of ADAM10 substrate cleavage blockers – biochemical, QFRET, dose response (AID 743254);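 note: ADAM10 enzyme with the DM2 quenched FRET peptide as substrate; EDANS fluorescence gain as the protease cuts the substrate; inhibitor potency against ADAM10 proteolytic activity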
[15] = target: T5, Disintegrin and metalloproteinase domain-containing protein 17 (Homo sapiens, UniProt P78536); test: exosite inhibitors of ADAM17, dose response, biochemical (AID 743260)
T5 sequence (P78536 whole entry, the tested form may be a part): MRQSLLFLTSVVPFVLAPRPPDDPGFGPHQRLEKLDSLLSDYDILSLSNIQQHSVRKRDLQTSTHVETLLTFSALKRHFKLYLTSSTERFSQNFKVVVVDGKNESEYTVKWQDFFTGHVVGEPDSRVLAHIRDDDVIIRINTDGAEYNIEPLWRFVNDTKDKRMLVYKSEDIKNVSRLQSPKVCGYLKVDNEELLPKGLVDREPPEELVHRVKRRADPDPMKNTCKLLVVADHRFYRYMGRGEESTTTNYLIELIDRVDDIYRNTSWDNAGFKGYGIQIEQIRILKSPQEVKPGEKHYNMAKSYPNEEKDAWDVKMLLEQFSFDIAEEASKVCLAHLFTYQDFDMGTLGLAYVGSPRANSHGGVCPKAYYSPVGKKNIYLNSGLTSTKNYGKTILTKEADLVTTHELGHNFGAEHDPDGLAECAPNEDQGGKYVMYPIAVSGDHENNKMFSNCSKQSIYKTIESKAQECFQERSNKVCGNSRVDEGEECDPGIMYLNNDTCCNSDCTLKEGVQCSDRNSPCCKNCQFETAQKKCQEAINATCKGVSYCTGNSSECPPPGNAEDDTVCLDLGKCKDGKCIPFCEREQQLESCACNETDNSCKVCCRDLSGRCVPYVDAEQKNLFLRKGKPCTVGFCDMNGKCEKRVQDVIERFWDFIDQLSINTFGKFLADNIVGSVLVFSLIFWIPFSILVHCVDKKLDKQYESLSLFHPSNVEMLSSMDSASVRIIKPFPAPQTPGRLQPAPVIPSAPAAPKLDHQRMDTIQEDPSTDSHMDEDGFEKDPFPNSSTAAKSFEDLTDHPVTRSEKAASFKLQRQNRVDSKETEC

[16] = target: T5, Disintegrin and metalloproteinase domain-containing protein 17; test: inhibition of ADAM17 substrate cleavage – biochemical, quenched FRET substrate, counter-screen for ADAM10 exosite inhibitor project, dose response (AID 743253)
Paired box protein Pax-8 = Paired box protein Pax-8 (Homo sapiens, UniProt Q06710); test: PAX8 transcriptional activity inhibition in RMG-I – RMG-I cells, luciferase, cherry-pick, dose response (AID 687027); assay type: functional, cell-based;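 note: luciferase reporter driven by Pax8 target thyroperoxidase promoter measured by SteadyGlo luminescence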
Sequence of Paired box protein Pax-8 (Q06710 whole entry): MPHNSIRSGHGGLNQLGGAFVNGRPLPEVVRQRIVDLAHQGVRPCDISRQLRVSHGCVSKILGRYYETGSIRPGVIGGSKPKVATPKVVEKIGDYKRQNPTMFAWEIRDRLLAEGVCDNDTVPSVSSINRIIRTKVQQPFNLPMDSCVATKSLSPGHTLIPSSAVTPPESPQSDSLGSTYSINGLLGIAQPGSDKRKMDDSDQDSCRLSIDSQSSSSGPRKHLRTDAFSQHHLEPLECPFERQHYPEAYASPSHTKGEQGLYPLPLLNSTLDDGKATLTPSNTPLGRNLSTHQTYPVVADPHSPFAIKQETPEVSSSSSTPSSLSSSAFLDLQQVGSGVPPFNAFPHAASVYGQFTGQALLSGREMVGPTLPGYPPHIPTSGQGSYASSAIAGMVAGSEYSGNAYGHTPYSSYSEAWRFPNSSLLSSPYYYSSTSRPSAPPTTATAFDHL

[17] = IGROV1 cell killing – plate reader, dry powder samples, PAX8 inhibitor project, dose response (AID 743043); assay type: functional, cell-based; settings: IGROV-1
[18] = target: T6, RNA-editing ligase 1, mitochondrial (Trypanosoma brucei brucei, UniProt P86926); test: inhibition of trypanosome RNA editing ligase – biochemical, fluorescence, Trypanosoma brucei, dose response (AID 1117295); assay type: functional
T6 sequence (P86926 whole entry): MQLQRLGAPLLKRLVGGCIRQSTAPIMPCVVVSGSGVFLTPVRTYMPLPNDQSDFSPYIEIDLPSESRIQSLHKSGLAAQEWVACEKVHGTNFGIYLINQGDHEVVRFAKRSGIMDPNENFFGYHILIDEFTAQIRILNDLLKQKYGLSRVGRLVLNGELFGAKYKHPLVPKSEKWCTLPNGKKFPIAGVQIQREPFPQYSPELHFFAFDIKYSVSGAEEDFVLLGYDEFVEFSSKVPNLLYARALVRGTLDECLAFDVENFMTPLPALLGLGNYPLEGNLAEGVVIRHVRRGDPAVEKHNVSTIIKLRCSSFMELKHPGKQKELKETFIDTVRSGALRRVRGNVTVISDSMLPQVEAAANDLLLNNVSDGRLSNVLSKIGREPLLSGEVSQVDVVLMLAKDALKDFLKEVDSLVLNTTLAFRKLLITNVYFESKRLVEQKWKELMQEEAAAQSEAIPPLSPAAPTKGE

Sequence of Estrogen receptor beta (Q92731 whole entry): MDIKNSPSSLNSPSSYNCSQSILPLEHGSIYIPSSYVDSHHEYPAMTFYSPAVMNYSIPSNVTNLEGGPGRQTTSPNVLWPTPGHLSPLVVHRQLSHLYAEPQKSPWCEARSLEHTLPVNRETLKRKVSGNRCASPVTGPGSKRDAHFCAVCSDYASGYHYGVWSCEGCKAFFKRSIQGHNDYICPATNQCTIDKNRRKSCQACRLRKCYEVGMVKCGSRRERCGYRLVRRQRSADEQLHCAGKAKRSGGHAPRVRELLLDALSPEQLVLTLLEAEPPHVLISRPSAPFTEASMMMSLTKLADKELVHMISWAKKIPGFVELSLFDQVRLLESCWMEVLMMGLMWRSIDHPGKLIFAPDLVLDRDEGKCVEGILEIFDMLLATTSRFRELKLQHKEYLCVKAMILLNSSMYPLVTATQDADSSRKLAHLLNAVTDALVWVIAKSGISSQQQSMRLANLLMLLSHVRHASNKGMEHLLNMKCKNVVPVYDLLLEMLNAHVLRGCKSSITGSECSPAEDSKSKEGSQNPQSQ

COc1ccc(N2CCN(C(=O)CCCn3c(=O)[nH]c4ccsc4c3=O)CC2)cc1
IC50 (Estrogen receptor beta): > 50 µM (not active)

COCCn1c(C)cc(C(=O)CSc2nnc3ccccn23)c1C
EC50 [1]: < 0.2 µM (active) | EC50 (HT-1080): > 50 µM (not active) | AC50 (HEK293): 2.88 µM (active) | AC50 [2]: > 52 µM (inactive) | AC50 [3]: 4.03 µM (active) | AC50 [4]: 3.66 µM (active)

CC(=O)c1cccc(Nc2cc(C)nc3c(C)cccc23)c1
IC50 [5]: > 47.1 µM (inactive) | EC50 [6]: > 53 µM (inactive) | AC50 [7]: 21.4 µM (active)

CC(=O)OC1(c2ccc(C)cc2)CN2CCC1c1ccccc12 (centres undefined)
IC50 (Ephrin type-A receptor 4): > 100 µM (not active)

C=CCNC(=S)NNC(=O)c1cccn(Cc2ccc(Cl)c(Cl)c2)c1=O
EC50 [8]: > 260 µM (inactive) | IC50 [9]: > 122 µM (inactive)

Cc1ccsc1/C=N\Nc1cnnc(O)c1Cl
IC50 (cells [10]): > 29.9 µM (inactive) | EC50 [11]: 2.16 µM (active) | IC50 [12]: 8.29 µM (active) | EC50 (cells [13]): > 29.9 µM (inactive)

Cc1ccccc1NC(C)C(=O)N/N=C/c1ccccc1OCc1cccc(Br)c1 (centres undefined)
IC50 [14]: > 69.5 µM (inactive) | IC50 [15]: > 69.5 µM (inactive) | IC50 [16]: > 69.5 µM (inactive)

Cc1ccc(S(=O)(=O)Nc2ccc3c(c2)C(=O)N([C@H](C)CO)C[C@@H](C)[C@H](CN(C)S(=O)(=O)c2ccc(C)cc2)OCCCC[C@H](C)O3)cc1
AC50 (Paired box protein Pax-8): 9.07 µM (active) | AC50 [17]: 51.4 µM (active)

COc1cccc(CNc2nc(NCc3ccccc3)nc3ccsc23)c1
IC50 [18]: > 96.6 µM (inactive)

COc1cc(CN(CCN(C)C)Cc2ccccc2)ccc1OCc1ccccc1
IC50 [18]: > 96.6 µM (inactive)
